Source: patent EP1206476B1, “9A-AZALIDES WITH ANTIBACTERIAL ACTIVITY” (ABBOTT LABORATORIES, priority 1999, dated 2001)

What was measured:
Assay in all cases: In vitro assay of antibacterial activity (agar dilution MIC)
Format in all cases: cell-based
[1] = tested on: Candida albicans CCH 442; conditions: code TT = Candida albicans CCH 442; BHI agar, 35-37 °C, 20 to 24 hours; unit assumed
Experimental: (§1) Representative compounds of the present invention were assayed in vitro for antibacterial activity as follows: Twelve petri dishes containing successive aqueous dilutions of the test compound mixed with 10 mL of sterilized Brain Heart Infusion (BHI) agar (Difco 0418-01-5) were prepared. Each plate was inoculated with 1:100 (or 1:10 for slow-growing strains, such as Micrococcus and Streptococcus) dilutions of up to 32 different microorganisms, using a Steers replicator block. The inoculated plates were incubated at 35-37 °C for 20 to 24 hours. In addition, a control plate, using BHI agar containing no test compound, was prepared and incubated at the beginning and end of each test.
(§2) An additional plate containing a compound having known susceptibility patterns for the organisms being tested and belonging to the same antibiotic class as the test compound was also prepared and incubated as a further control, as well as to provide test-to-test comparability. Erythromycin A was used for this purpose.
(§3) After incubation, each plate was visually inspected. The minimum inhibitory concentration (MIC) was defined as the lowest concentration of drug yielding no growth, a slight haze, or sparsely isolated colonies on the inoculum spot as compared to the growth control.

[2] = tested on: Escherichiacoli JUHL; conditions: code QQ = Escherichiacoli JUHL; BHI agar, 35-37 °C, 20 to 24 hours; unit assumed
Experimental: as §1, §2, §3

[3] = tested on: Escherichiacoli SS; conditions: code RR = Escherichiacoli SS; BHI agar, 35-37 °C, 20 to 24 hours; unit assumed
Experimental: as §1, §2, §3

[4] = tested on: Haemophilislnfluenzae DILL AMP R; conditions: code WW = Haemophilislnfluenzae DILL AMP R; BHI agar, 35-37 °C, 20 to 24 hours; unit assumed
Experimental: as §1, §2, §3

[5] = tested on: Micrococcusluteus ATCC 4698; conditions: code PP = Micrococcusluteus ATCC 4698; BHI agar, 35-37 °C, 20 to 24 hours; unit assumed
Experimental: as §1, §2, §3

[6] = tested on: Mycobacterium smegmatis ATCC 114; conditions: code UU = Mycobacterium smegmatis ATCC 114; BHI agar, 35-37 °C, 20 to 24 hours; unit assumed
Experimental: as §1, §2, §3

[7] = tested on: Nocardia Asteroides ATCC 99700; conditions: code VV = Nocardia Asteroides ATCC 99700; BHI agar, 35-37 °C, 20 to 24 hours; unit assumed
Experimental: as §1, §2, §3

[8] = tested on: Staphylococcus aureus 1775; conditions: code GG = Staphylococcus aureus 1775; BHI agar, 35-37 °C, 20 to 24 hours; unit assumed
Experimental: as §1, §2, §3

[9] = tested on: Staphylococcus aureus A-5177; conditions: code BB = Staphylococcus aureus A-5177; BHI agar, 35-37 °C, 20 to 24 hours; unit assumed
Experimental: as §1, §2, §3

[10] = tested on: Staphylococcus aureus A-5278; conditions: code CC = Staphylococcus aureus A-5278; BHI agar, 35-37 °C, 20 to 24 hours; unit assumed
Experimental: as §1, §2, §3

[11] = tested on: Staphylococcus aureus ATCC 6538P; conditions: code AA = Staphylococcus aureus ATCC 6538P; BHI agar, 35-37 °C, 20 to 24 hours; unit assumed
Experimental: as §1, §2, §3

[12] = tested on: Staphylococcus aureus NCTC 10649M; conditions: code EE = Staphylococcus aureus NCTC 10649M; BHI agar, 35-37 °C, 20 to 24 hours; unit assumed
Experimental: as §1, §2, §3

[13] = tested on: Staphylococcus epidermidis 3519; conditions: code HH = Staphylococcus epidermidis 3519; BHI agar, 35-37 °C, 20 to 24 hours; unit assumed
Experimental: as §1, §2, §3

[14] = tested on: Streptococcus Pneumonia 5649; conditions: code ZA = Streptococcus Pneumonia 5649; BHI agar, 35-37 °C, 20 to 24 hours; unit assumed
Experimental: as §1, §2, §3

[15] = tested on: Streptococcus Pneumonia ATCC 6303; conditions: code XX = Streptococcus Pneumonia ATCC 6303; BHI agar, 35-37 °C, 20 to 24 hours; unit assumed
Experimental: as §1, §2, §3

[16] = tested on: Streptococcus Pneumonia GYR 1171; conditions: code YY = Streptococcus Pneumonia GYR 1171; BHI agar, 35-37 °C, 20 to 24 hours; unit assumed
Experimental: as §1, §2, §3

[17] = tested on: Streptococcus agalactiae CMX 508; conditions: code KK = Streptococcus agalactiae CMX 508; BHI agar, 35-37 °C, 20 to 24 hours; unit assumed
Experimental: as §1, §2, §3

[18] = tested on: Streptococcus bovis A-5169; conditions: code JJ = Streptococcus bovis A-5169; BHI agar, 35-37 °C, 20 to 24 hours; unit assumed
Experimental: as §1, §2, §3

[19] = tested on: Streptococcus pyogenes 930; conditions: code MM = Streptococcus pyogenes 930; BHI agar, 35-37 °C, 20 to 24 hours; unit assumed
Experimental: as §1, §2, §3

[20] = tested on: Streptococcus pyogenes EES61; conditions: code LL = Streptococcus pyogenes EES61; BHI agar, 35-37 °C, 20 to 24 hours; unit assumed
Experimental: as §1, §2, §3

[21] = tested on: Streptococcus pyogenes PIU 2548; conditions: code NN = Streptococcus pyogenes PIU 2548; BHI agar, 35-37 °C, 20 to 24 hours; unit assumed
Experimental: as §1, §2, §3

[22] = tested on: Streptococcus Pneumonia 5979; conditions: code ZZ = Streptococcus Pneumonia 5979; BHI agar, 35-37 °C, 20 to 24 hours; unit assumed
Experimental: as §1
An additional plate containing a compound having known susceptibility patterns for the organisms being tested and belonging to the same antibiotic class as the test compound was also prepared and incubated as a further control, as well as to provide test-to-test comparability.
as §3

| SMILES | Antibacterial Activity (MIC's) [1] [µg/mL] | Antibacterial Activity (MIC's) [2] [µg/mL] | Antibacterial Activity (MIC's) [3] [µg/mL] | Antibacterial Activity (MIC's) [4] [µg/mL] | Antibacterial Activity (MIC's) [5] [µg/mL] | Antibacterial Activity (MIC's) [6] [µg/mL] | Antibacterial Activity (MIC's) [7] [µg/mL] | Antibacterial Activity (MIC's) [8] [µg/mL] | Antibacterial Activity (MIC's) [9] [µg/mL] | Antibacterial Activity (MIC's) [10] [µg/mL] | Antibacterial Activity (MIC's) [11] [µg/mL] | Antibacterial Activity (MIC's) [12] [µg/mL] | Antibacterial Activity (MIC's) [13] [µg/mL] | Antibacterial Activity (MIC's) [14] [µg/mL] | Antibacterial Activity (MIC's) [15] [µg/mL] | Antibacterial Activity (MIC's) [16] [µg/mL] | Antibacterial Activity (MIC's) [17] [µg/mL] | Antibacterial Activity (MIC's) [18] [µg/mL] | Antibacterial Activity (MIC's) [19] [µg/mL] | Antibacterial Activity (MIC's) [20] [µg/mL] | also measured |
| --- | --- | --- | --- | --- | --- | --- | --- | --- | --- | --- | --- | --- | --- | --- | --- | --- | --- | --- | --- | --- | --- |
| CC[C@H]1OC(=O)[C@H](C)[C@@H](O[C@H]2C[C@@](C)(OC)[C@@H](O)[C@H](C)O2)[C@H](C)[C@@H](O[C@@H]2O[C@H](C)C[C@H](N(C)C)[C@H]2O)[C@](C)(O)C[C@@H](C)C(=O)[C@H](C)[C@@H](O)[C@]1(C)O [Ery. A standard, Erythromycin A, reference compound] | > 100 | > 100 | 0.78 | 4 | 0.2 | 3.1 | 0.1 | > 100 | 3.1 | > 100 | 0.2 | 0.39 | 0.39 | 16 | 0.06 | 0.06 | 0.05 | 0.02 | > 100 | 0.05 | Antibacterial Activity (MIC's) [21]: 6.2 µg/mL |
| C=CCO[C@]1(C)C[C@@H](C)CN[C@H](C)[C@@H](O)[C@](C)(O)[C@@H](CC)OC(=O)[C@H](C)[C@@H](O[C@H]2C[C@@](C)(OC)[C@@H](O)[C@H](C)O2)[C@H](C)[C@H]1O[C@@H]1O[C@H](C)C[C@H](N(C)C)[C@H]1O [Example 2] | > 100 | 50 | 0.78 | 8 | 0.39 | 6.2 | 0.1 | > 100 | 12.5 | > 100 | 0.2 | 0.39 | 0.2 | 16 | 0.06 | 0.06 | 0.05 | 0.02 | > 100 | 0.05 | Antibacterial Activity (MIC's) [21]: 6.2 µg/mL; Antibacterial Activity (MIC's) [22]: > 128 µg/mL |
